Assays:
Male C57BL/6N mice = test: Triglyceride absorption suppression after fat loading (in vivo DGAT1 inhibitory effect); details: Mus musculus, po; dose of 10 mg/kg or lower, orally administered, mice fasted overnight, plasma triglyceride after fat loading; read-out: Triglyceride absorption suppressive activity
Summary of the method: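 Overnight-fasted male C57BL/6N mice dosed orally with compound (1 to 10 mg/kg in 0.5% methylcellulose), then given Pluronic-F127 1 g/kg i.p. and an oral 20% Intralipid load. Plasma triglyceride measured 1 to 4 h later. Absorption suppression (%) calculated against water-loaded and fat-loaded vehicle groups.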

DGAT1 enzyme = target: T1, DGAT1 enzyme (Homo sapiens, UniProt O75907); test: DGAT1 inhibitory activity test; assay type: biochemical; details: test compound concentration of 0.05 μg/ml; read-out: Inhibitory Rate
T1 construct: made in house
T1 sequence (O75907 1-488): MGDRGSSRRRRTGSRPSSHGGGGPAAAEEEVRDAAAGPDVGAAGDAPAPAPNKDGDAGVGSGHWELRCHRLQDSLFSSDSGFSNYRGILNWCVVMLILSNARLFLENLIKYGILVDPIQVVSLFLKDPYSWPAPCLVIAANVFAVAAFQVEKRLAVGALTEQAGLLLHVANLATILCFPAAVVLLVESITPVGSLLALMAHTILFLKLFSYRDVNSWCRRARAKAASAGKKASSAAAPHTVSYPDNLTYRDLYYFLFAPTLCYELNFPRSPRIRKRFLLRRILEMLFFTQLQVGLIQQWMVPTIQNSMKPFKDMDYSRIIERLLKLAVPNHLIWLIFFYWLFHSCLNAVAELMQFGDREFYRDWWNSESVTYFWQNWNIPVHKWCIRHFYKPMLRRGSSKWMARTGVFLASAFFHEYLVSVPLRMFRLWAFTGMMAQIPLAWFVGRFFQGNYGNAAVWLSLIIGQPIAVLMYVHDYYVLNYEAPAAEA
Summary of the method: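 Reaction at 23° C for 30 min in 175 mM Tris-HCl pH 8.0, 8 mM MgCl2, 1 mg/ml BSA, 0.5% Triton X-100 with 0.3 mM 1,2-dioleoyl-sn-glycerol and 10 μM [14C]-oleoyl-CoA. Triglyceride extracted into heptane, separated by TLC, radioactivity quantified; % inhibition versus vehicle control, 0-min background subtracted.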

inhibition at 0.05 µg/mL (DGAT1 enzyme) [%]	SMILES	inhibition in vivo at up to 10 mg/kg (Male C57BL/6N mice) [%]
≥ 50	N#Cc1cccc(NC(=O)Nc2ccc3c(c2)CCN(C(=O)O[C@H]2CC[C@H](CC(=O)O)CC2)C3)c1 [Example 74, trans-6-[3-(3-cyano-phenyl)-ureido]-3,4-dihydro-1H-isoquinoline-2-carboxylic acid 4-carboxymethyl-cyclohexyl ester]	≥ 60
≥ 50	CN(C)c1cccc(NC(=O)Nc2ccc3c(c2)CCN(C(=O)O[C@H]2CC[C@H](CC(=O)O)CC2)C3)c1 [Example 75, trans-6-[3-(3-dimethylamino-phenyl)-ureido]-3,4-dihydro-1H-isoquinoline-2-carboxylic acid 4-carboxymethyl-cyclohexyl ester]	≥ 60
≥ 50	CC(C)(C)c1cccc(NC(=O)Nc2ccc3c(c2)CCN(C(=O)O[C@H]2CC[C@H](CC(=O)O)CC2)C3)c1 [Example 76, trans-6-[3-(3-tert-butyl-phenyl)-ureido]-3,4-dihydro-1H-isoquinoline-2-carboxylic acid 4-carboxymethyl-cyclohexyl ester]	≥ 60
≥ 50	Cc1ccccc1NC(=O)Nc1ccc2c(c1)CCN(C(=O)O[C@H]1CC[C@H](CC(=O)O)CC1)C2 [Example 77, trans-6-(3-o-tolyl-ureido)-3,4-dihydro-1H-isoquinoline-2-carboxylic acid 4-carboxymethyl-cyclohexyl ester]	≥ 60
≥ 50	Cc1ccc(NC(=O)Nc2ccc3c(c2)CCN(C(=O)O[C@H]2CC[C@H](CC(=O)O)CC2)C3)cc1C [Example 78, trans-6-[3-(3,4-dimethyl-phenyl)-ureido]-3,4-dihydro-1H-isoquinoline-2-carboxylic acid 4-carboxymethyl-cyclohexyl ester]	≥ 60
≥ 50	CCOc1ccc(NC(=O)Nc2ccc3c(c2)CCN(C(=O)O[C@H]2CC[C@H](CC(=O)O)CC2)C3)cc1 [Example 80, trans-6-[3-(4-ethoxy-phenyl)-ureido]-3,4-dihydro-1H-isoquinoline-2-carboxylic acid 4-carboxymethyl-cyclohexyl ester]	≥ 60
≥ 50	CC(C)(C)NC(=O)Nc1ccc2c(c1)CCN(C(=O)O[C@H]1CC[C@H](CC(=O)O)CC1)C2 [Example 82, trans-6-(3-tert-butyl-ureido)-3,4-dihydro-1H-isoquinoline-2-carboxylic acid 4-carboxymethyl-cyclohexyl ester]	≥ 60
≥ 50	O=C(O)C[C@H]1CC[C@H](OC(=O)N2CCc3cc(NC(=O)NC4CCCC4)ccc3C2)CC1 [Example 83, trans-6-(3-cyclopentyl-ureido)-3,4-dihydro-1H-isoquinoline-2-carboxylic acid 4-carboxymethyl-cyclohexyl ester]	≥ 60
≥ 50	O=C(O)C[C@H]1CC[C@H](OC(=O)N2CCc3cc(NC(=O)NC4CCCCC4)ccc3C2)CC1 [Example 84, trans-6-(3-cyclohexyl-ureido)-3,4-dihydro-1H-isoquinoline-2-carboxylic acid 4-carboxymethyl-cyclohexyl ester]	≥ 60
≥ 50	O=C(O)C[C@H]1CC[C@H](OC(=O)N2CCc3cc(NC(=O)NCC4CCCCC4)ccc3C2)CC1 [Example 85, trans-6-(3-cyclohexylmethyl-ureido)-3,4-dihydro-1H-isoquinoline-2-carboxylic acid 4-carboxymethyl-cyclohexyl ester]	≥ 60
≥ 50	O=C(O)C[C@H]1CC[C@H](OC(=O)N2CCc3cc(NC(=O)NC45CC6CC(CC(C6)C4)C5)ccc3C2)CC1 [Example 86, trans-6-(3-adamantan-1-yl-ureido)-3,4-dihydro-1H-isoquinoline-2-carboxylic acid 4-carboxymethyl-cyclohexyl ester]	≥ 60
≥ 50	Cc1cncc(NC(=O)Nc2ccc3c(c2)CCN(C(=O)O[C@H]2CC[C@H](CC(=O)O)CC2)C3)c1 [Example 90, trans-6-[3-(5-methyl-pyridin-3-yl)-ureido]-3,4-dihydro-1H-isoquinoline-2-carboxylic acid 4-carboxymethyl-cyclohexyl ester]	≥ 60
≥ 50	O=C(O)C[C@H]1CC[C@H](OC(=O)N2CCc3cc(NC(=O)Nc4ccc(Cl)cn4)ccc3C2)CC1 [Example 91, trans-6-[3-(5-chloro-pyridin-2-yl)-ureido]-3,4-dihydro-1H-isoquinoline-2-carboxylic acid 4-carboxymethyl-cyclohexyl ester]	≥ 60
≥ 50	O=C(O)C[C@H]1CC[C@H](OC(=O)N2CCc3cc(NC(=O)Nc4ccc(Cl)nc4)ccc3C2)CC1 [Example 92, trans-6-[3-(6-chloro-pyridin-3-yl)-ureido]-3,4-dihydro-1H-isoquinoline-2-carboxylic acid 4-carboxymethyl-cyclohexyl ester]	≥ 60
≥ 50	Cc1cnc(NC(=O)Nc2ccc3c(c2)CCN(C(=O)O[C@H]2CC[C@H](CC(=O)O)CC2)C3)s1 [Example 95, trans-6-[3-(5-methyl-thiazol-2-yl)-ureido]-3,4-dihydro-1H-isoquinoline-2-carboxylic acid 4-carboxymethyl-cyclohexyl ester]	≥ 60
≥ 50	Cc1cc(NC(=O)Nc2ccc3c(c2)CCN(C(=O)O[C@H]2CC[C@H](CC(=O)O)CC2)C3)no1 [Example 97, trans-6-[3-(5-methyl-isoxazol-3-yl)-ureido]-3,4-dihydro-1H-isoquinoline-2-carboxylic acid 4-carboxymethyl-cyclohexyl ester]	≥ 60
≥ 50	C[C@@H]1C[C@H](CC(=O)O)CC[C@H]1OC(=O)N1CCc2cc(NC(=O)Nc3cccc(OC(F)(F)F)c3)ccc2C1 [Example 102, 6-[3-(3-trifluoromethoxy-phenyl)-ureido]-3,4-dihydro-1H-isoquinoline-2-carboxylic acidt-4-carboxymethyl-t-2-methyl-r-1-cyclohexyl ester]	≥ 60
≥ 50	CC(C(=O)O)[C@H]1CC[C@H](OC(=O)N2CCc3cc(NC(=O)Nc4ccccc4F)ccc3C2)CC1 (stereo partly drawn) [Example 103, trans-6-[3-(2-fluoro-phenyl)-ureido]-3,4-dihydro-1H-isoquinoline-2-carboxylic acid 4-(1-carboxy-ethyl)-cyclohexyl ester]	≥ 60
≥ 50	COc1cccc(NC(=O)Nc2ccc3c(c2)CCN(C(=O)O[C@H]2CC[C@H](C(C)C(=O)O)CC2)C3)c1 (stereo partly drawn) [Example 104, trans-6-[3-(3-methoxy-phenyl)-ureido]-3,4-dihydro-1H-isoquinoline-2-carboxylic acid 4-(1-carboxy-ethyl)-cyclohexyl ester]	≥ 60
≥ 50	CC(C(=O)O)[C@H]1CC[C@H](OC(=O)N2CCc3cc(NC(=O)Nc4ccccc4)ccc3C2)CC1 (stereo partly drawn) [Example 105, trans-6-(3-phenyl-ureido)-3,4-dihydro-1H-isoquinoline-2-carboxylic acid 4-(1-carboxy-ethyl)-cyclohexyl ester]	≥ 60
≥ 50	CC(C(=O)O)C1CCC(CC(=O)N2CCc3cc(NC(=O)Nc4ccccc4F)ccc3C2)CC1 (centres unmarked) [Example 107, 2-[4-(2-{6-[3-(2-fluoro-phenyl)-ureido]-3,4-dihydro-1H-isoquinolin-2-yl}-2-oxo-ethyl)-cyclohexyl]-propionic acid]	≥ 60
≥ 50	CN(C(=O)N1CCc2cc(NC(=O)Nc3ccccc3F)ccc2C1)C1CCC(CC(=O)O)CC1 (centres unmarked) [Example 108, [4-({6-[3-(2-fluoro-phenyl)-ureido]-3,4-dihydro-1H-isoquinoline-2-carbonyl}-methyl-amino)-cyclohexyl]-acetic acid]	≥ 60

Reference: patent publication US8735425B2, “Tetrahydroisoquinoline derivative” (Daiichi Sankyo Company, Limited, priority 2008, dated 2014)
